EP4635958A1, “PYRIMIDINE-CONTAINING POLYCYCLIC DERIVATIVE INHIBITOR, AND PREPARATION METHOD THEREFOR AND USE THEREOF” (Shanghai Hansoh Biomedical Co., Ltd., priority 2022, dated 2024)
Like-named read-outs stand apart in the source and are kept apart here.

Legend:
[1] = Plasma stability test, rat plasma; conditions: Rat plasma, 37°C
Description: The purpose of this experiment was to detect the stability of the example compounds in plasma of mouse, rat, dog and human.
Liquid chromatography-mass spectrometer, centrifuge, vortexer, pipette, continuous dispenser, 96-well plate, 50% methanol aqueous solution, acetonitrile solution containing internal standard, blank matrix (plasma of rat, dog, or human), Propantheline (propantheline bromide), Mevinolin (lovastatin), and test compound.
After whole blood was collected from animals or humans, it was placed in a test tube containing an anticoagulant and centrifuged at 3500 rpm for 10 min to collect the upper pale yellow plasma.
The compound was weighed and the stock solution was formulated with DMSO and the working solution was formulated with 100 mM phosphate buffer.
2.36 mg of propantheline bromide was weighed and diluted with 1 mL of DMSO into a 10 mM stock solution; 10 µL of 10 mM stock solution was pipetted into 1 mL of 100 mM phosphate buffer to achieve a final concentration of 100 µM.
4.05 mg of lovastatin was weighed and diluted with 1 mL of DMSO into a 10 mM stock solution; 10 µL of 10 mM stock solution was pipetted into 1 mL of 100 mM phosphate buffer to achieve a final concentration of 100 µM.
• 1) In a 96-well plate, 285 µL of plasma and 15 µL of 10 µM compound (test compound) were added in sequence and incubated at 37°C. • 2) 40 µL was taken at 0, 15, 30, 60, 90, and 120 min (the sampling point can be fine-tuned) and 160 µL of acetonitrile stop solution containing internal standard was add. • 3) After centrifugation (3500 rpm, 10 min), 50 µL of supernatant was taken, and 50 µL of DDH2O added for dilution and then the obtained mixture was injected into LC-MS/MS.
• Instruments: Shimadzu LC-20 AD • Chromatographic column: Phenomenex Gemiu ® C18 (50*4.6 mm, 5 µm particle size); • mobile phase: A: Acetonitrile, B: 0.1% formic acid solution 0-8 min: 5% A→95% A, 2.0-2.1 min: 90%A→5% A; Flow rate: 0.8 mL/min; Run time: 5.0 min; Injection volume: 5 µL.
• Instrument: API4000 liquid chromatography-mass spectrometer, AB Company, USA; • the ion source was electrospray ionization source (ESI); • drying gas (N2) temperature was 500°C; • electrospray voltage was 5500V; • the detection method was positive ion detection; • the scanning method was selected reaction monitoring (MRM); • the scanning time was 0.1s.

GP2D = test: Inhibition of proliferation of KRAS G12D mutant tumor cell line GP2D (CellTiter-Glo); conditions: read-out: GP2D IC50
Description: Experimental method: When SNU-1, HPAF-II, Panc0403, AsPC-1 or GP2D cells were cultured to the appropriate confluence, and the SNU-1, HPAF-II, Panc0403, AsPC-1 or GP2D cells were collected. The cells were adjusted to the appropriate cell density using complete culture medium, the cell suspension was plated onto a 96-well plate at 90 µL per well, and the plate was placed in the incubator at 37°C and 5% CO2 for adherent culture overnight. Solutions of the compound with different concentrations were formulated using DMSO and culture medium. A vehicle control was set up. […] Then, CellTiter-Glo solution was added, and the obtained mixture was shaken and mixed evenly, incubated in the dark for 10 min, and read with a BioTek Synergy H1 microplate reader. […] Experimental data processing method: The luminescence signal value was used to calculate the inhibition rate. Graphpad Prism software was used to fit the concentration and inhibition rate to a nonlinear regression curve, so as to obtain the IC50 value.

AsPC-1 = test: Inhibition of proliferation of KRAS G12D mutant tumor cell line AsPC-1 (CellTiter-Glo); format: cell-based
Description: 1. Experimental objective: The inhibition activity of the example compounds on the proliferation of 5 KRAS G12D mutant cell lines SNU-1, HPAF-II, Panc0403, AsPC-1 and GP2D was determined. 2. Experimental instruments: • 2.1 Instruments: Microplate reader (BioTek Synergy H1); Pipette (Eppendorf & Rainin). • 2.2 Reagents: HPAF-II, PANC0403, AsPC-1 and GP2D were purchased from COBIOER BIOSCIENCES CO., LTD; SNU-1 was purchased from the cell bank of Chinese Academy of Sciences, Cell Titer-Glo was purchased from Promega, with a catalog number of G7573; RPMI 1640 was purchased from Gibco, with a catalog number of 22400089; DMEM was purchased from Gibco, with a catalog number of 11995065; FBS was purchased from Gibco, with a catalog number of 10091148; PBS was purchased from Gibco, with a catalog number of 10010023; trypsin was purchased from Gibco, with a catalog number of 25200056; cell culture plates were purchased from Corning Company, with a catalog number of 3610. 3. Experimental method: When SNU-1, HPAF-II, Panc0403, AsPC-1 or GP2D cells were cultured to the appropriate confluence, and the SNU-1, HPAF-II, Panc0403, AsPC-1 or GP2D cells were collected. The cells were adjusted to the appropriate cell density using complete culture medium, the cell suspension was plated onto a 96-well plate at 90 µL per well, and the plate was placed in the incubator at 37°C and 5% CO2 for adherent culture overnight. Solutions of the compound with different concentrations were formulated using DMSO and culture medium. A vehicle control was set up. The solutions of the compound were added to the 96-well plate at 10 µL per well, and the plate was placed in the incubator at 37°C and 5% CO2 for further culture for about 72 h. Then, CellTiter-Glo solution was added, and the obtained mixture was shaken and mixed evenly, incubated in the dark for 10 min, and read with a BioTek Synergy H1 microplate reader. 4. Experimental data processing method: The luminescence signal value was used to calculate the inhibition rate. Graphpad Prism software was used to fit the concentration and inhibition rate to a nonlinear regression curve, so as to obtain the IC50 value. 5. Experimental results: Table 2: Determination of the inhibition activity of the compounds on the proliferation of KRAS G12D mutant tumor cell line GP2D

[2] = Pharmacokinetic determination in rats (IV and PO, plasma, LCMS/MS); format: in vivo, SD rats; conditions: male SD rats; for AUC(0-inf): read-out: AUCo-∞; for half-life: read-out: T1/2 (converted)
Description: SD rats were used as test animals to study the pharmacokinetic behavior of the example compounds in rats (plasma) after oral administration.
The example compounds of the present invention, made in house.
3 SD rats per group, male. Shanghai Jiesijie Experimental Animal Co., Ltd., animal production license number (SCXK (Shanghai) 2013-0006 N0.311620400001794).
Formulation of a drug for oral administration: 10% Captisol in 50 mM citrate buffer pH 5.0.
(§1) Formulation of 50 mM citric acid: 4.8 g of citric acid was weighed into a 1000 ml glass bottle, ultrapure water was added to 300 ml, and the mixture was magnetically stirred until completely dissolved, additional ultrapure water was then added to 500 ml to formulate 50 mM citric acid.
(§2) Formulation of a solution containing 50 mM citric acid (10% Captisol, PH = 5): 50 g of Captisol powder was weighed and added to a 1000 ml glass bottle, 300 ml of 50 mM citric acid was added, and the mixture was magnetically stirred until completely dissolved, then additional citric acid was added to 500 ml, and the PH was adjusted to 5 using 10 M NaOH.
The example compounds were weighed and dissolved in the solution and the mixture was shaken well and subjected to ultrasound treatment for 15 min to obtain a colorless clear solution with a concentration of 3 mg/mL.
(§3) Formulation of a drug for intravenous administration: 5%DMSO+10%Solutol HS15+85%PBS.
(§4) The example compounds were weighed, and 5% DMSO was added according to the total administration volume; the mixture was vortexed and sonicated for 2 min to ensure complete dissolution; then, 10% Solutol HS15 was added, and the mixture was vortexed and sonicated for 2 min to achieve complete dissolution; finally, 85% PBS was added, and the mixture was vortexed and sonicated for 5 min; the obtained mixture was filtered through a 0.22 um membrane to obtain a colorless, transparent, and clear solution with a concentration of 0.2 mg/mL.
3 SD rats per group, male; After overnight fasting, the animals were administered orally (PO) at a dose of 30 mg/kg with an administration volume of 10 mL/kg.
3 SD rats per group, male; After overnight fasting, the animals were administered intravenously (IV) at a dose of 1 mg/kg with an administration volume of 5 mL/kg.
0.2 mL of blood was collected from the jugular vein before administration and at 0.25 h, 0.5 h, 1.0 h, 2.0 h, 4.0 h, 6.0 h, 8.0 h, and 24.0 h after administration and placed in an EDTA-2K test tube, and the test tube was centrifuged at 6000 rpm for 6 min at 4°C to separate the plasma, which was stored at -20°C. the animals were fed 4 h after administration.
The final determination results obtained by applying the LCMS/MS method are shown in the table below: Table 8: Pharmacokinetic parameters of the compounds administered intravenously in rats

[3] = Pharmacokinetic determination in mice (IV and PO, plasma, LCMS/MS); format: in vivo, Balb/c mice
Text: • 1. Study objective: Balb/c mice were used as test animals to study the pharmacokinetic behavior of the compounds in mice (plasma) after oral administration. • 2. Test scheme • 2.1 Test drugs: The example compounds of the present invention, made in house; • 2.2 Test animals: Balb/c mice, male, purchased from Shanghai Jiesijie Experimental Animal Co., Ltd., animal production license number (SCXK (Shanghai) 2013-0006 N0.311620400001794). • 2.3 Drug formulation: Formulation of a drug for oral administration: 10% Captisol in 50 mM citrate buffer pH 5.0.
as §1, §2
The example compounds were weighed and added to a 4 mL glass bottle separately, 2.4 mL of the solution was added and the mixture was subjected to ultrasound treatment for 10 min to obtain a colorless clear solution with a concentration of 3 mg/mL.
as §3, §4
3 Balb/c mice, male; After overnight fasting, the animals were administered orally (PO) at a dose of 30 mg/kg with an administration volume of 10 mL/kg.
3 Balb/C mice, male; After overnight fasting, the animals were administered intravenously (IV) at a dose of 1 mg/kg with an administration volume of 5 mL/kg.
0.04 mL of blood was collected from the orbit before administration and at 0.25 h, 0.5 h, 1 h, 2 h, 4 h, 6 h, 8 h, and 24 h after administration and placed in an EDTA-2K test tube, and the test tube was centrifuged at 6000 rpm for 6 min at 4°C to separate the plasma, which was stored at -20°C; the animals were fed 4 h after administration.
The final determination results obtained by applying the LCMS/MS method are shown in the table below: Table 6: Pharmacokinetic parameters of the compounds administered intravenously in mice

[4] = Homo sapiens, ASPC1, about 72 h
[5] = rat, in vivo, PO, 30 mg/kg, overnight fasting, plasma
[6] = rat, in vivo, PO, 30 mg/kg, overnight fasting, plasma, read-out: Cmax
[7] = rat, in vivo, PO, 30 mg/kg, overnight fasting, plasma, read-out: Tmax
[8] = Balb/c mice, intravenously (IV), 1 mg/kg, plasma
[9] = PO, 30 mg/kg, male Balb/c mice, overnight fasting, plasma
[10] = proliferation, about 72 h, CellTiter-Glo
[11] = IV, 1 mg/kg, overnight fasting, plasma
[12] = PO, 30 mg/kg, overnight fasting, plasma

Compound: CC[C@H](C)C(=O)O[C@H]1C[C@@H](C)C=C2C=C[C@H](C)[C@H](CC[C@@H]3C[C@@H](O)CC(=O)O3)[C@H]21 [Lovastatin, lovastatin, reference compound]
- Remaining rate (%) 0 min ([1]; 0 min): 100.00%
- Remaining rate (%) 15 min ([1]; 15 min): 21.15%
- Remaining rate (%) 30 min ([1]; 30 min): 1.77%
- Remaining rate (%) 60 min ([1]; 60 min): 0.36%
- Remaining rate (%) 120 min ([1]; 120 min): 0.30%

Compound: C#Cc1c(F)ccc2cc(O)cc(-c3nc4c5c(nc(OCC6(CN7CCC(=C(F)F)C[C@@H]7C)CC6)nc5c3F)N3C[C@H]5CC[C@H](N5)[C@H]3[C@H](C)O4)c12 [Example 90]
- IC50 (GP2D; Homo sapiens, GP2d, 72 h): 0.51 nM
- IC50 (AsPC-1; [4]): 8.8 nM

Compound: [2H]C([2H])([2H])C1Oc2nc(-c3cc(O)cc4ccc(F)c(C#C)c34)c(F)c3nc(OCC4(CN5CCC(=CF)CC5C)CC4)nc(c23)N2CC3CCC(N3)C12 (stereo not drawn) [Example 286]
- IC50 (GP2D; Homo sapiens, GP2d, 72 h): 0.32 nM
- AUC(0-inf) [2, 5]: 600 ng·h/mL
- Cmax [2, 6]: 50 ng/mL
- half-life [2, 5]: 10.8 h
- Tmax [2, 7]: 2 h
- IC50 (AsPC-1; [4]): 7.8 nM

Compound: 4-((5S,5aS,6R,9S)-12-((1-((((R)-4-(difluoromethylene)-2-methylpiperidin-1-yl)methyl)cyclopropyl)methoxy)-1-fluoro-5-methyl-5a,6,7,8,9,10-hexahydro-5H-4-oxa-3,10a,11,13,14-pentaaza-6,9-methylnaphtho[1,8-ab]hept-2-yl)-5-ethynyl-6-fluoronaphthalen-2-ol [Example 91]
- AUCo-∞ [3, 8]: 366 ng·h/mL
- C0 [3, 8]: 662 ng/mL
- CL [3, 8]: 45.6 mL/min/kg
- T1/2 [3, 8]: 9.3 h
- F ([3]; PO 30 mg/kg vs IV 1 mg/kg, male Balb/c mice): 16.6%
- AUC0-∞ [3, 9]: 1818 ng·h/mL
- Cmax [3, 9]: 295 ng/mL
- T1/2 [3, 9]: 5.7 h
- Tmax [3, 9]: 2.0 h
- IC50 (GP2D; [10]): 0.28 nM
- AUCo-∞ [2, 11]: 660 ng·h/mL
- C0 [2, 11]: 995 ng/mL
- CL [2, 11]: 25.3 mL/min/kg
- T1/2 [2, 11]: 11.9 h
- F ([2]; PO 30 mg/kg vs IV 1 mg/kg): 9.7%
- AUCo-∞ [2, 12]: 1925 ng·h/mL
- Cmax [2, 12]: 251 ng/mL
- T1/2 [2, 12]: 4.8 h
- Tmax [2, 12]: 6.0 h
- IC50 (AsPC-1; about 72 h): 5.8 nM

Compound: C#Cc1c(F)ccc2cc(O)cc(-c3nc4c5c(nc(OCC6(CN7CCCC(=C(F)F)CC7)CC6)nc5c3F)N3C[C@H]5CC[C@H](N5)[C@H]3[C@H](C)O4)c12 [Example 132]
- IC50 (GP2D; Homo sapiens, GP2d, 72 h): 0.24 nM
- AUC(0-inf) [2, 5]: 2350 ng·h/mL
- Cmax [2, 6]: 246 ng/mL
- Tmax [2, 7]: 2 h
- IC50 (AsPC-1; [4]): 4.9 nM

Compound: [2H]C([2H])(Oc1nc2c3c(nc(-c4cc(O)cc5ccc(F)c(C#C)c45)c(F)c3n1)O[C@@H](C)[C@@H]1[C@@H]3CC[C@H](CN21)N3)C1(C([2H])([2H])N2CCC(=C(F)F)CC2)CC1 [Example 289]
- IC50 (GP2D; Homo sapiens, GP2d, 72 h): 0.28 nM
- AUC(0-inf) [2, 5]: 2110 ng·h/mL
- Cmax [2, 6]: 280 ng/mL
- half-life [2, 5]: 6.3 h
- Tmax [2, 7]: 4 h
- IC50 (AsPC-1; [4]): 5.7 nM

Compound: 4-((5S,5aS,6R,9S)-12-((1-((((R)-4-(difluoromethylene)-2-methylpiperidin-1-yl)methyl)cyclopropyl)methoxy)-1-fluoro-5-methyl-5a,6,7,8,9,10-hexahydro-5H-4-oxa-3,10a,11,13,14-pentaaza-6,9-methylnaphtho[1,8-ab]hept-2-yl)-5-ethynyl-6-fluoronaphthalen-2-ol [Example 89]
- AUC0-∞ [3, 9]: 1513 ng·h/mL
- Cmax [3, 9]: 259 ng/mL
- T1/2 [3, 9]: 7.7 h
- Tmax [3, 9]: 1.0 h
- IC50 (GP2D; [10]): 0.9 nM
- IC50 (AsPC-1; about 72 h): 8.9 nM

Compound: [2H]C([2H])(Oc1nc2c3c(nc(-c4cc(O)cc5ccc(F)c(C#C)c45)c(F)c3n1)O[C@@H](C)[C@@H]1[C@@H]3CC[C@H](CN21)N3)C1(C([2H])([2H])N2CCC(=C(F)F)C[C@H]2C)CC1 [Example 290]
- IC50 (GP2D; Homo sapiens, GP2d, 72 h): 0.3 nM
- IC50 (AsPC-1; [4]): 6.2 nM

Compound: C#Cc1c(F)ccc2cc(O)cc(-c3nc4c5c(nc(OCC6(CN7CCC(=C(F)F)C7)CC6)nc5c3F)N3C[C@H]5CC[C@H](N5)[C@H]3[C@H](C)O4)c12 [Example 130]
- IC50 (GP2D; Homo sapiens, GP2d, 72 h): 0.33 nM
- IC50 (AsPC-1; [4]): 4.2 nM
